# Active and inactive are the calls of the source.
# What was measured:
# Cytochrome P450 2D6 = Cytochrome P450 2D6 (Homo sapiens, UniProt P10635);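 also: CYP2D6 member of a cytochrome P450 panel assay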
# [1] = A Cell Based Secondary Assay To Explore Cytotoxicity of Compounds that Sensitize Mycobacterium Tuberculosis to Beta-Lactam Antibiotics.; format: functional
# [2] = target: T1, Adenosylmethionine-8-amino-7-oxononanoate aminotransferase (Mycobacterium tuberculosis, UniProt P9WQ81); assay: Mycobacterium tuberculosis BioA enzyme inhibitor Measured in Biochemical System Using Plate Reader - 2163-02_Inhibitor_Dose_CherryPick_Activity.; format: functional, Mycobacterium tuberculosis UT205
# T1 sequence (P9WQ81 whole entry): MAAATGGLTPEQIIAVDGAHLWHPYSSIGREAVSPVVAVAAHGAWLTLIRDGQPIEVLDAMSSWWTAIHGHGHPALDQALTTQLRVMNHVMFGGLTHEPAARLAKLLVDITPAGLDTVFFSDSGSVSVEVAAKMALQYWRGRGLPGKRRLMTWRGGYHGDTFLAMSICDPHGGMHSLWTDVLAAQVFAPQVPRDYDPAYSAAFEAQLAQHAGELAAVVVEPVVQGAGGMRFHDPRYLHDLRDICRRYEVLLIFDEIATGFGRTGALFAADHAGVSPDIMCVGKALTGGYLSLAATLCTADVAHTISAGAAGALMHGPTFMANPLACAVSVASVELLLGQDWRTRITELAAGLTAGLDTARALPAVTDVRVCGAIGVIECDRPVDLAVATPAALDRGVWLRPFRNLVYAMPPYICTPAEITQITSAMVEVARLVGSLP
# [3] = Trypanosoma cruzi growth suppression in host cells – NIH3T3 host cells, beta-gal luminescence, confirmation (AID 2044); format: functional, cell-based;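 also: intracellular parasites grown in NIH/3T3 mouse fibroblasts as host cells; luminescent beta-galactosidase reporter signal from transgenic T. cruzi replicating inside host cells; inhibitors lower the luminescence signal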
# [4] = NIH3T3 cell viability loss – ATP luminescence, mouse fibroblasts, counter-screen, dose response (AID 2010); format: functional, cell-based;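 also: cells exposed to compound for about 90 hours before reading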
# INS1 = assay: INS-1E survival protection against cytokine death – cell-based, luminescence, retest, dose response (AID 449756); format: functional; conditions: Rattus norvegicus;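 also: cell death triggered by IL-1 beta plus TNF-alpha plus IFN-gamma mixture; protective hits raise ATP signal compared with cytokine alone wells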
# [5] = viability loss in THP-1 monocytes – THP-1 cells, cytotoxicity control for Vif-APOBEC3G degradation inhibitor project, dose response (AID 1117359); format: functional; conditions: THP-1
# [6] = target: T2, Type-1 angiotensin II receptor (Homo sapiens, UniProt P30556); assay: antagonism of angiotensin II type 1 receptor – cell-based, uHTS hits, selectivity assay for APJ receptor antagonist project, dose response (AID 463214); format: functional;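 also: antagonist potency against angiotensin II stimulated AT1 response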
# T2 sequence (P30556 whole entry): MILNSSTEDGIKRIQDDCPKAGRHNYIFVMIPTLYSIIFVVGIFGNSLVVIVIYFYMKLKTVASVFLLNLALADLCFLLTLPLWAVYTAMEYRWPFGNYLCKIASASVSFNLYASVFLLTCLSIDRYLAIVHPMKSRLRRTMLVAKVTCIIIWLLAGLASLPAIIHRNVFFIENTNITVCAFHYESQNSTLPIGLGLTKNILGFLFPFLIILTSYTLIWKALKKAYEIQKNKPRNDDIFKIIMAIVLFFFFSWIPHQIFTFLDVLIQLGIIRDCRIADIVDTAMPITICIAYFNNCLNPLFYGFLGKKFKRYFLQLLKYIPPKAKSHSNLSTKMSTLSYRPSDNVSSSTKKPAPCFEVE
# Beta-galactosidase = Beta-galactosidase (Escherichia coli, UniProt Q8VNN2); assay: PubChem AID 485352; format: functional
# Streptococcus = assay: GAS UMAA2166 growth inhibition – luminescence, BacTiterGlo, counter-screen for streptokinase expression inhibitor project, dose response (AID 1915); format: functional, organism-based;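 also: potency for reduction of bacterial viability or growth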
# [7] = target: T3, Sentrin-specific protease 8 (Homo sapiens, UniProt Q96LD8); format: functional;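 also: luminescence read-out of SENP8 inhibition, dose-response confirmation following an ultra-high-throughput screen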
# T3 sequence (Q96LD8 whole entry): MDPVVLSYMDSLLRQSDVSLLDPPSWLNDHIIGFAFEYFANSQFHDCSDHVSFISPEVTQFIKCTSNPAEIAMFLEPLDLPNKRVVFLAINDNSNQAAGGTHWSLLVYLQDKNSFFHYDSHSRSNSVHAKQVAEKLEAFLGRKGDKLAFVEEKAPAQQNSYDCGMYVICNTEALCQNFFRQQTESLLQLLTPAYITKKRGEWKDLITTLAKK
# [8] = target: T4, Sentrin-specific protease 7 (Homo sapiens, UniProt Q9BQF6); format: functional;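 also: Luminescence-based dose-response confirmation of ultra-high-throughput screening hits, measuring inhibition of SENP7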
# T4 sequence (Q9BQF6 whole entry): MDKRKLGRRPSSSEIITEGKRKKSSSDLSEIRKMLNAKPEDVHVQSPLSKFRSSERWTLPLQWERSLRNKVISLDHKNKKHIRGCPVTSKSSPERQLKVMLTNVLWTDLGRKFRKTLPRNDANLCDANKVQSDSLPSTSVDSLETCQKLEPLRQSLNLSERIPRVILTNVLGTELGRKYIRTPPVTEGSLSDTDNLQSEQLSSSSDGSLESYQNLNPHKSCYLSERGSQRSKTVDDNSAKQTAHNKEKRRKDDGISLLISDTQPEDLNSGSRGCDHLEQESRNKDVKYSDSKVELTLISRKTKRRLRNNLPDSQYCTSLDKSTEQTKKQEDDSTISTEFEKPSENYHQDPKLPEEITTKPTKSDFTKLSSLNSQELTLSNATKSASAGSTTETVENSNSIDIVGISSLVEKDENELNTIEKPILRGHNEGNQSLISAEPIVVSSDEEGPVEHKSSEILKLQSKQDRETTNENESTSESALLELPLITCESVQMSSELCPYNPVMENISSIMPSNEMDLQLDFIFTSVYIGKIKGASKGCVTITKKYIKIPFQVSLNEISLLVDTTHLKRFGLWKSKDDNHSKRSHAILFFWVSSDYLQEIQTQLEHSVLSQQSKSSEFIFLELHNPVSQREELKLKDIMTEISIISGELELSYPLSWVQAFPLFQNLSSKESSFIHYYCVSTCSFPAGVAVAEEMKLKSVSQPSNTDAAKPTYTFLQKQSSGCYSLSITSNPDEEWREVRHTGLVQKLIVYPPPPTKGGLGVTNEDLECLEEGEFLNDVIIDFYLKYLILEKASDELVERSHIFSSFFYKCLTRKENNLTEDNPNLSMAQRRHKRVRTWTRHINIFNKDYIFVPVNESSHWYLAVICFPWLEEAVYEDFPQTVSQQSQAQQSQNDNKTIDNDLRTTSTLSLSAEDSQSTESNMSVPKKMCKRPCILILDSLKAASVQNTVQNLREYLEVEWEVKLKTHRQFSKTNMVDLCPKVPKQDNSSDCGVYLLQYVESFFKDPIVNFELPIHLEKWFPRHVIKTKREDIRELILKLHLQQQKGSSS
# Caspase-3 [9] = target: T5, Caspase-3 (Homo sapiens, UniProt P42574); format: functional
# T5 sequence (P42574 whole entry): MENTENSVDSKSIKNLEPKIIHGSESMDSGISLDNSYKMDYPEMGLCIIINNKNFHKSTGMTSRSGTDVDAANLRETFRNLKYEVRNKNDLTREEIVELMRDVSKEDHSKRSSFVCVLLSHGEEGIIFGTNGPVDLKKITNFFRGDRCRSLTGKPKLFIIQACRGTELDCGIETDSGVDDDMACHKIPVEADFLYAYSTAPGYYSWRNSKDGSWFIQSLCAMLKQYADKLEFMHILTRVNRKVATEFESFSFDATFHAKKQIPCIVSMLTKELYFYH
# [10] = target: T6, Sentrin-specific protease 6 (Homo sapiens, UniProt Q9GZR1); assay: SAR Analysis of small molecule inhibitors of Sentrin-specific protease 6 (SENP6) using a Luminescent assay. [Related pubchem assays (depositor defined):AID2582, AID2599]; format: functional
# T6 sequence (Q9GZR1 whole entry): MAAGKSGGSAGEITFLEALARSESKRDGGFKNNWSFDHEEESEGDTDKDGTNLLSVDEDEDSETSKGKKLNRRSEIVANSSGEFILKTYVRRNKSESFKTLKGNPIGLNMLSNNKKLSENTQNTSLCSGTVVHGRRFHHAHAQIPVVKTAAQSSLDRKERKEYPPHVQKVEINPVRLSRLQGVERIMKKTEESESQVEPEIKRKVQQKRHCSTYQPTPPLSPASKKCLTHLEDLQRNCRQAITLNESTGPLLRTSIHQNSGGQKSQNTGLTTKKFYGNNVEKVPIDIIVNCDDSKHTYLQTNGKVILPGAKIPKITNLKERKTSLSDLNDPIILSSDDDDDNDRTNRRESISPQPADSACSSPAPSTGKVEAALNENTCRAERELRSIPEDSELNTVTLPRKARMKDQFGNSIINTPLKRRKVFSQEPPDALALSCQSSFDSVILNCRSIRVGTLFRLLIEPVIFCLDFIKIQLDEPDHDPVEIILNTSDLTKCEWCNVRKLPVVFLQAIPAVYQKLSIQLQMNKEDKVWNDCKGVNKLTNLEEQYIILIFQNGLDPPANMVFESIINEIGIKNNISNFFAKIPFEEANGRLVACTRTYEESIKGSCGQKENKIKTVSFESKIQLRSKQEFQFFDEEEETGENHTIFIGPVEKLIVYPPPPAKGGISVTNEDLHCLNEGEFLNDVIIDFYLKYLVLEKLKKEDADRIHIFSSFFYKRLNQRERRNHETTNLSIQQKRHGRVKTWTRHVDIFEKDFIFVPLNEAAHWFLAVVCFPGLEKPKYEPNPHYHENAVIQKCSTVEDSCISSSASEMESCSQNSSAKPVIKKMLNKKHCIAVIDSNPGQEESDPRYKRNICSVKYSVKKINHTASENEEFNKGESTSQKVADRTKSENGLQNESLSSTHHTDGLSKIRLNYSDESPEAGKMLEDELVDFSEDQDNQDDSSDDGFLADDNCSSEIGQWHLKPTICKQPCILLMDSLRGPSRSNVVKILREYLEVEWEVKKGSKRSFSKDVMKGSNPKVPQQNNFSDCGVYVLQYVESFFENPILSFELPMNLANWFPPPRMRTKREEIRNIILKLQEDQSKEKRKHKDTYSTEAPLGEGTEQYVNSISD
# [11] = target: T4, Sentrin-specific protease 7; assay: inhibition of human SENP7 cleavage activity – biochemical, luminescence, SAR follow-up (AID 504497); format: functional
# [12] = target: T6, Sentrin-specific protease 6; format: functional
# Streptokinase A = target: T7, Streptokinase A (Streptococcus pyogenes serotype M1, UniProt P10520); assay: viability-normalized secreted streptokinase activity reduction – plasminogen activation absorbance, OD405, dose response (AID 1914); format: functional, Streptococcus pyogenes M1 GAS;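 also: secreted streptokinase activity via plasminogen activation per viability signal from cell pellet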
# T7 sequence (P10520 whole entry): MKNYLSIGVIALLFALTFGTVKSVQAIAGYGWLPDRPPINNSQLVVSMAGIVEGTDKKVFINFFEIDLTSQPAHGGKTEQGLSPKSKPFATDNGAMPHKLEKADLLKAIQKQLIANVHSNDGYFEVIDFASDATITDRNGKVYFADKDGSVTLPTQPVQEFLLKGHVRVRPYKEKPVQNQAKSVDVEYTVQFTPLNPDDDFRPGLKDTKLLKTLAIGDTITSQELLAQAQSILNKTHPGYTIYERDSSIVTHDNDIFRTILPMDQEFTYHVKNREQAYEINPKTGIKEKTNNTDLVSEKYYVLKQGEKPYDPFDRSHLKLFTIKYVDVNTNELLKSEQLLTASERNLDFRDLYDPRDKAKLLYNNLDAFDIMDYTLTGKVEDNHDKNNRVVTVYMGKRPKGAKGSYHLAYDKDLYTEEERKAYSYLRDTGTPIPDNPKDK
# [13] = system: Streptococcus sp. 'group A'; assay: Streptococcus pyogenes SK(-)GAS viability under kanamycin – luminescence, BacTiterGlo, confirmation, counter-screen for streptokinase expression inhibitor project, dose response (AID 1900); format: functional, organism-based
# Caspase-3 [14] = target: T5, Caspase-3; assay: SAR Analysis of small molecule inhibitors of Sentrin-specific proteases (SENPs) using a Caspase-3 Selectivity assay. [Related pubchem assays (depositor defined):AID2540, AID2599, AID434973, AID489001]; format: functional
# Cytochrome P450 2D6, sequence (P10635 whole entry): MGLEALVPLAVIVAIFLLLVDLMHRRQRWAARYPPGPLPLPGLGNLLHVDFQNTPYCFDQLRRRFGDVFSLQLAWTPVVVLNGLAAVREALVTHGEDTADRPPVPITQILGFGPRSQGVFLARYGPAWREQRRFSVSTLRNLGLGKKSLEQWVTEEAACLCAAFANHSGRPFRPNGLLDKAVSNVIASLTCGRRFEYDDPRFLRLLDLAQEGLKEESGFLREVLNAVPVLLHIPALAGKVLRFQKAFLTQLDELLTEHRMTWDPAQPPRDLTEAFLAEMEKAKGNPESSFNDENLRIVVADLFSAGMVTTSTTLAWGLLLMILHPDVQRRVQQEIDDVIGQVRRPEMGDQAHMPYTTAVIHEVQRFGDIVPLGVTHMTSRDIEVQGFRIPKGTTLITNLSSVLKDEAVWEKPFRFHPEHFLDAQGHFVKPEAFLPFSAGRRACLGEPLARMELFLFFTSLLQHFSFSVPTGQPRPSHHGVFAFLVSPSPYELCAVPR
# Beta-galactosidase, sequence (Q8VNN2 whole entry): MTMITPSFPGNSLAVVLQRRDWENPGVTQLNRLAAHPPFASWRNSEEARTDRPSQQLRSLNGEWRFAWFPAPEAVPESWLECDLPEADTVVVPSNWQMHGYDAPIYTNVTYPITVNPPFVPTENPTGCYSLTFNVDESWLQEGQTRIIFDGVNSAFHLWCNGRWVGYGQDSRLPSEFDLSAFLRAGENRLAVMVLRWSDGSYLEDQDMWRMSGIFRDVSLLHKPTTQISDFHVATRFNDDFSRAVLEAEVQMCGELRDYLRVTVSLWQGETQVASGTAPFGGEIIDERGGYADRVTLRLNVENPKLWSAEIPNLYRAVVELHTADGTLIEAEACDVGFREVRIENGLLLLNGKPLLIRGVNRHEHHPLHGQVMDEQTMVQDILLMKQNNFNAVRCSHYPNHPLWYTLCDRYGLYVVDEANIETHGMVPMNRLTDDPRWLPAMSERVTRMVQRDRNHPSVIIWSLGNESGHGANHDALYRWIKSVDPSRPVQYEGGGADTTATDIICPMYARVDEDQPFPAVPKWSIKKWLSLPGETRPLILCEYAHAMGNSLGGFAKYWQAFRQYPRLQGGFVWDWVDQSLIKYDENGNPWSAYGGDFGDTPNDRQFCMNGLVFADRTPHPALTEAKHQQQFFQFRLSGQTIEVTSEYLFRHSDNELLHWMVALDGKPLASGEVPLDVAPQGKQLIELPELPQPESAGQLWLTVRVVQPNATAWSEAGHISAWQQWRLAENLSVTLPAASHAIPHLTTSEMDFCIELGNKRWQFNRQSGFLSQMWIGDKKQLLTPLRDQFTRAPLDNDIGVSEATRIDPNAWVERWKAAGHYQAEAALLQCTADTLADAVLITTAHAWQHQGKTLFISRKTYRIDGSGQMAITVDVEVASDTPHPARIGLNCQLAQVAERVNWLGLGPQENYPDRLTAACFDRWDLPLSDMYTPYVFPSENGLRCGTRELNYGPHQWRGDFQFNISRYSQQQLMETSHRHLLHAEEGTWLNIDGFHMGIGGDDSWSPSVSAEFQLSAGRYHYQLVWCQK
smiles,measurement,setting,value
CCCn1nnnc1NC(=O)COc1ccc(Cl)cc1C,AC50,Cytochrome P450 2D6,25.1 µM (inconclusive)
same,CC50,[1],34.5 µM (active)
COC(=O)c1c(C(=O)OC)c(-c2ccc(F)cc2)n2c1C[S+]([O-])C2 (stereo not given),AC50,[2],10.3 µM (active)
NC(=O)c1ccc(Oc2cccc3cccnc23)c([N+](=O)[O-])c1,AC50,[2],2.3 µM (active)
COc1cc(OC)c(OC)cc1CNCCc1ccc(F)cc1,EC50,[3],< 0.1 µM (active)
same,EC50,[4],> 60 µM (not active)
same,EC50,cells,0.055 µM (active)
CCOC(=O)c1ccc(-[n+]2c(-c3ccccc3)cc(-c3ccccc3)cc2-c2ccccc2)cc1.[O-][Cl+3]([O-])([O-])[O-],EC50,[3],< 0.1 µM (active)
same,AC50,INS1,2.02 µM (active)
same,EC50,[4],> 60 µM (not active)
same,EC50,cells,0.047 µM (active)
CCOC(=O)c1ccc(N2C(=O)c3[nH]nc(C)c3C2c2ccc(OC)cc2OC)cc1 (stereo not given),CC50,[5],> 40 µM (active)
Nc1ccc(N=Nc2ccccc2O)c(N)c1,CC50,[1],> 40 µM (active)
CN(C)CCN(Cc1ccco1)C(=O)c1cc2c(Cl)nc3ccccc3c2s1,EC50,[3],< 0.1 µM (active)
same,IC50,[6],33.8 µM (not active)
same,EC50,[4],9.5 µM (active)
same,EC50,Beta-galactosidase,> 40 µM (inactive)
same,EC50,cells,0.115 µM (active)
CN(C)CCNc1ccc(-c2nn(C)c(=O)c3ccccc23)cc1[N+](=O)[O-],EC50,[3],< 0.1 µM (active)
same,EC50,[4],> 60 µM (not active)
same,EC50,cells,0.062 µM (active)
Cc1cccc(C(=O)Nc2scc(-c3ccc(Br)cc3)c2C(=O)O)c1,EC50,Streptococcus,8.14 µM (active)
same,IC50,[7],3.72 µM (active)
same,IC50,[8],> 100 µM (inactive)
same,IC50,Caspase-3 [9],5.21 µM (active)
same,IC50,[10],3.42 µM (active)
same,IC50,[11],6.38 µM (active)
same,IC50,[12],4.28 µM (active)
same,EC50,Streptokinase A,> 150 µM (not active)
same,EC50,[13],2.33 µM (active)
same,IC50,Caspase-3 [14],4.89 µM (active)
C[C@H](CO)N1C[C@H](C)[C@@H](CN(C)Cc2ccc3c(c2)OCO3)Oc2ccc(NC(=O)Cn3cnnn3)cc2CC1=O,AC50,[2],13 µM (active)
COC(=O)C[C@@H]1CC[C@@H]2[C@H](COC[C@@H](O)CN2C(=O)Nc2cccc(F)c2)O1,AC50,[2],10 µM (active)
O=C(c1cccc(F)c1)N1CC[C@@H]2[C@H]1c1cc(-c3cccc(F)c3)ccc1N[C@@H]2CO,AC50,[2],5.94 µM (active)
O=C(N/N=C1\CCC\C1=C(/O)C(F)(F)F)c1cccc(O)c1,CC50,[1],32.2 µM (active)
